Test results from patent publication US6514946B1, “Macrolide antibiotics and treatment and prophylaxis of pasteurellosis using the same” (Zaidan Hojin Biseibutsu Kagaku Kenkyu Kai, priority 1999, dated 2003).
Converted amounts (≈) assume the structure as drawn.

Key:
M. bovis = assay type: in vivo, cattle; conditions: nasal cavity swab
M. bovirhinis = test: Bacteria separation test from nasal cavity swab; assay type: in vivo, cattle
P. multocida = test: Bacteria separation test from nasal cavity swab; assay type: in vivo, cattle
S. aureus FDA209P = test: Minimum inhibition concentration (MIC), agar double dilution method; assay type: cell-based, Staphylococcus aureus; conditions: Staphylococcus aureus, Mueller hinton agar, read-out: MIC
Procedure: (§1) Test 1; Minimum Inhibition Concentration (MIC)
(§2) MIC was measured, based on the standard method of Japan Society of Chemotherapy, on a BHI agar medium (Brain heart-infusion agar, made by Difco Laboratories Inc.(USA)) with respect to Pasteurella and on a Mueller hinton agar medium (Mueller hinton agar, made by Difco, Laboratories Inc.(USA)) with respect to the other test bacteria in both cases according to the double dilution method.

[1] = test system: Past. multocida BOPO305 M-17; test: as above; assay type: cell-based, Pasteurella multocida; conditions: Pasteurella multocida, BOPO305M17; Past. multocida BOPO305 M-17, strain from a sheep; BHI agar; read-out: MIC
Procedure: as §1, §2

[2] = test system: Past. multocida BSPO302 No. 6; test: as above; assay type: cell-based, Pasteurella multocida; conditions: Pasteurella multocida, BSPO302NO.6; Past. multocida BSPO302 No. 6, strain from a pig; BHI agar; read-out: MIC
Procedure: as §1, §2

[3] = test system: Past haemolytica BBPO102 N811; test: as above; assay type: cell-based, Pasteurella haemolytica; conditions: Mannheimia haemolytica, BBPO102N811
Procedure: as §1, §2

[4] = test system: Past haemolytica BAPO103 S801; test: as above; assay type: cell-based, Pasteurella haemolytica; conditions: Mannheimia haemolytica, BAPO103S801; Past haemolytica BAPO103 S801, strain from poultry; BHI agar; read-out: MIC
Procedure: as §1, §2

P. haemolytica = test: Bacteria separation test from nasal cavity swab; assay type: in vivo, cattle
[5] = test system: bovine bacterial pneumonia (Mycoplasma, Ureaplasma and Pasteurella); test: Clinical test against bovine bacterial pneumonia; assay type: in vivo, cattle; parameters: Average clinical score: scale not given here
Text: Test 5: Clinical Test Against Bovine Bacterial Pneumonia
In this test, each drug was subcutaneously administered to cattle suffering from bacterial pneumonia (infectious diseases with Mycoplasma, Ureaplasma and Pasteurella), respectively, and the clinical effect of P-MT was compared with those of tilmicosin and C-9.
Tests are made on 17 case of one to two-month-old Holstein cattle (weight 56 to 101 kg) suffering from bacterial pneumonia caused by single or mixed infection of Pasteurella, Mycoplasma, Ureaplasma and Haemophilus (6 animals for each of P-MT and C-9 and 5 animals for tilmicosin). The drug was subcutaneously administered to the animals once a day in an amount of 10 mg/kg.
Three calves showing a similar degree of symptoms at the start of the test were arranged in one group. Each subject of the same group was respectively tested with one of the above three compounds. Ailing calves were successively grouped when being available.
Clinical findings, based on the daily observation from the time of the administration through the 5th day of the trial, were scored on each item according to the criteria in the table below. The clinical efficacy of the compounds was judged on the 5th day.
As to judgment based on the clinical symptoms, cases which could be judged among each group were classified into remarkably effective (85 to 100), effective (70 to under 85), a little effective (50 to under 70) and infective (under 50) according to the following improvement rate by clinical scores, and after summing up, the following effective rate was calculated, the difference in the effective rate among the groups was determined using a statistical method, and thus effectivity was judged. [formula]

ICR mice = test: Toxicity test, intravenous or subcutaneous injection; assay type: in vivo; conditions: intravenous injection
[6] = test system: Micrococcus luteus PCI1001; test: Minimum inhibition concentration (MIC), agar double dilution method; assay type: cell-based; conditions: Mueller hinton agar, read-out: MIC
Procedure: as §1, §2

[7] = test system: Staphylococcus aureus 193; test: as above; assay type: cell-based; conditions: Mueller hinton agar, read-out: MIC
Procedure: as §1, §2

Proteus vulgaris OX19 = test: as above; assay type: cell-based; conditions: Mueller hinton agar, read-out: MIC
Procedure: as §1, §2

Serratia marcescens = test: as above; assay type: cell-based; conditions: Mueller hinton agar, read-out: MIC
Procedure: as §1, §2

[8] = test system: Pasteurella haemolytica BBPO101 N791; test: as above; assay type: cell-based; conditions: Mannheimia haemolytica, BBPO101N791
Procedure: as §1, §2

[9] = test system: Shigella dysenteriae JS11910; test: as above; assay type: cell-based; conditions: Shigella dysenteriae, JS11910
Procedure: as §1, §2

[10] = test system: Klebsiella pneumoniae PCI602; test: as above; assay type: cell-based; conditions: Mueller hinton agar, read-out: MIC
Procedure: as §1, §2

[11] = test system: Enterobacter aerogenes ATCC13048; test: as above; assay type: cell-based; conditions: Klebsiella aerogenes, Mueller hinton agar, read-out: MIC
Procedure: as §1, §2

Escherichia coli NIHJ = test: as above; assay type: cell-based; conditions: Mueller hinton agar, read-out: MIC
Procedure: as §1, §2

[12] = test system: Bacillus subtilis NRRL B-558; test: as above; assay type: cell-based; conditions: Bacillus subtilis, NRRLB558
Procedure: as §1, §2

[13] = test system: Salmonella enteritidis 1891; test: as above; assay type: cell-based; conditions: Salmonella enterica, Mueller hinton agar, read-out: MIC
Procedure: as §1, §2

[14] = In vivo kinetics (absorption and excretion test) in mice; conditions: male, Slc ddY, mouse, sc, 5 mg/kg
[15] = test system: S. aureus Smith (virulent strain); test: microbe, parasite or virus in culture; assay type: cell-based, Staphylococcus aureus; conditions: Staphylococcus aureus
Procedure: as §1, §2

Ureaplasma = test: Bacteria separation test from nasal cavity swab; assay type: in vivo, cattle
[16] = before administration (baseline)

In the case of `CC[C@H]1OC(=O)C[C@@H](O)[C@H](C)[C@@H](O[C@@H]2O[C@H](C)C(O)C(N(C)C)C2O)[C@@H](CCN2CC(C)CC(C)C2)C[C@@H](C)C(=O)/C=C/C(C)=C/[C@@H]1CO[C@@H]1OC(C)C(O)[C@@H](OC)C1OC` (stereo partly drawn) [Tilmicosin, tilmicosin], the “Separation rate (%) at completion (number of animal)” value (“Separation rate (%) at completion” for short) (M. bovis; at completion) is reported as 40 (2/5) % (number of animal), the “Separation rate (%) before administration (number of animal)” value (M. bovis; [16]) is reported as 40 (2/5) % (number of animal) and the “Separation rate (%) at completion” value (M. bovirhinis; at completion) is reported as 60 (3/5) % (number of animal). For the same compound, the “Separation rate (%) before administration (number of animal)” value (M. bovirhinis; [16]) was 60 (3/5) % (number of animal), the “Separation rate (%) at completion” value (P. multocida; at completion) was 80 (4/5) % (number of animal) and the “Separation rate (%) before administration (number of animal)” value (P. multocida; [16]) was 100 (5/5) % (number of animal). It also gave an MIC (S. aureus FDA209P) of 0.39 µg/mL (≈ 0.449 µM), an MIC [1] of 6.25 µg/mL (≈ 7.19 µM) and an MIC [2] of 6.25 µg/mL (≈ 7.19 µM). The MIC [3] was 1.56 µg/mL (≈ 1.79 µM), the MIC [4] was 50 µg/mL (≈ 57.5 µM) and the “Separation rate (%) at completion” value (P. haemolytica; at completion) was 20 (1/5) % (number of animal). For the same compound, the “Separation rate (%) before administration (number of animal)” value (P. haemolytica; [16]) was 20 (1/5) % (number of animal), the Average clinical score ([5]; 1 day after completion of administration, cattle, 10 mg/kg subcutaneous) was 3.5 and the Average clinical score ([5]; 2 days after completion of administration) was 2.8. The Average clinical score ([5]; 3 days after completion of administration) was 2.2, the Average clinical score ([5]; 4 days after completion of administration) was 2.7 and the “Effective rate (%) in clinical effect” value ([5]; (remarkably effective + effective case number)/test case number × 100) was 40%. For the same compound, the “Average symptomatic improvement rate (%)” value ([5]; (score before − score after administration)/score before × 100) was 65.6%, the Average clinical score ([5]; at administration (baseline), cattle, 10 mg/kg subcutaneous) was 6.5 and the “A little effective (%) (case number)” value ([5]; improvement rate 50 to under 70) was 20 (1) % (case number). The “Effective (%) (case number)” value ([5]; improvement rate 70 to under 85) was 0 (0) % (case number), the “Remarkably effective (%) (case number)” value ([5]; improvement rate 85 to 100) was 40 (2) % (case number) and the “Ineffective (%) (case number)” value ([5]; improvement rate under 50) was 40 (2) % (case number). The Dissection finding (ICR mice; 0.5 mg/mouse) was “immediate death”, the Dissection finding (ICR mice; 1.0 mg/mouse) was “immediate death” and the Dissection finding (ICR mice; 2.0 mg/mouse) was “immediate death”. It also gave an MIC [6] of 0.2 µg/mL (≈ 0.23 µM), an MIC [7] of 0.39 µg/mL (≈ 0.449 µM) and an MIC (Proteus vulgaris OX19) of 100 µg/mL (≈ 115 µM). The MIC (Serratia marcescens) was greater than 100 µg/mL, the MIC [8] was 1.56 µg/mL (≈ 1.79 µM) and the MIC [9] was 100 µg/mL (≈ 115 µM). For the same compound, the MIC [10] was 25 µg/mL (≈ 28.8 µM), the MIC [11] was 100 µg/mL (≈ 115 µM) and the MIC (Escherichia coli NIHJ) was 25 µg/mL (≈ 28.8 µM). It also gave an MIC [12] of 1.56 µg/mL (≈ 1.79 µM), an MIC [13] of 6.25 µg/mL (≈ 7.19 µM) and a concentration at 0.5 h ([14]; lung) of 310 ng/g. The concentration at 1 h ([14]; lung) was 350 ng/g, the concentration at 2 h ([14]; lung) was 310 ng/g and the concentration at 4 h ([14]; lung) was 230 ng/g. For the same compound, the concentration at 8 h ([14]; lung) was 195 ng/g, the concentration at 24 h ([14]; lung) was 60 ng/g and the concentration at 0.5 h ([14]; serum) was 230 ng/mL. It also gave a concentration at 1 h ([14]; serum) of 60 ng/mL, a concentration at 2 h ([14]; serum) of 50 ng/mL and a concentration at 4 h ([14]; serum) of 40 ng/mL. For the same compound, the MIC [15] was 1.56 µg/mL (≈ 1.79 µM), the “Separation rate (%) at completion” value (Ureaplasma; at completion) was 60 (3/5) % (number of animal) and the “Separation rate (%) before administration (number of animal)” value (Ureaplasma; [16]) was 100 (5/5) % (number of animal).
